# Reference: patent publication US20150359854A1 (HUMAN MATRIX SCIENCES, LLC, priority 2012, published 2015)
# “Also recorded” adds a separate entry of the source.
# Legend:
# tropoelastin mRNA = assay: RT-PCR assay of tropoelastin mRNA; assay type: cell-based, human; details: 10 nmol/L insulin; for effect of inhibitor on insulin-induced up-regulation of tropoelastin mRNA: pretreated 30 minutes and maintained with inhibitor
# Experimental: At the end of the treatments, total RNA was extracted from quadruplicate cultures in each experimental group using the RNEASY® (RNA isolation) Mini Kit. One microgram total RNA from each sample was added to one-step RT-PCR (One-Step RT-PCR Kit; Qiagen, Inc.). The reactions were set up in a total volume of 25 μL. The reverse transcription step was performed for elastin and 18S ribosomal RNA reactions at 50° C. for 30 minutes, followed by 15 minutes at 95° C. The elastin PCR reaction using sense primer 5′[…]-3′ (SEQ ID NO 1) and antisense primer 5′[…]3′ (SEQ ID NO 2). The products were analyzed using ethidium bromide staining and densitometry-based image analysis using an optical system (Gel Doc 1000; Bio-Rad Laboratories, Inc., Hercules, Calif.). The amount of tropoelastin mRNA was standardized relative to the amount of 18S ribosomal RNA and expressed as percentage of control values.
# FoxO1 = FoxO1 binding to elastin gene promoter DNA probe (FRE) on DYNABEADS; assay type: cell-based, human; details: AoSMCs treated 30 minutes with 10 nmol/L insulin, or preincubated with LY294002
# Experimental: Cells were then scraped, and their nuclear extracts were pre-pared using an isolation kit (Active Motif, Inc.). […] The equal molar amounts of both single-stranded DNA oligonucleotides were annealed in Tris-EDTA buffer (10 mmol/L Tris-HCl, 1 mmol/L EDTA (pH 8.0)) to form the double-stranded DNA probe. […] All preparations were subsequently incubated for 2 hours in 200 μL binding buffer (50 mmol/L KCl, 10% glycerol, 20 mmol/L HEPES (pH 7.9), 1 mmol/L MgCl2, 1 mmol/L DTT, 0.1 μg poly(DI-DC) (polydeoxyinosinic-deoxycytidylic), and proteinase inhibitors). After binding, the beads were washed four times in the same binding buffer, without poly(DI-DC). The bound proteins were resolved using 8% SDS-PAGE and probed using Western blotting with the anti-FoxO1 monoclonal antibody.
# [1] = tested on: human aortic SMCs (AoSMCs); assay: Immunocytochemistry and morphometry of elastic fibers in AoSMC cultures; assay type: cell-based; details: for effect of inhibitor on elastogenic effects of IGF-1: 10 nmol/L IGF-1, parallel AoSMC cultures; for effect of inhibitor on elastogenic effects of insulin (immunostained elastic fibers, [3H]-valine-labeled insoluble elastin): 2% FBS
# From the text: Human aortic SMCs (AoSMCs) were propagated from small fragments of aortic media collected from autopsy. Guidelines for the protection of human subjects of the US Department of Health and Human Services and of the Declaration of Helsinki were followed in obtaining tissues for this investigation. Cells migrating from the cultured explants of aortic media were routinely passaged (up to three times) via trypsinization using 0.2% trypsin-0.02% EDTA, and were maintained in DMEM supplemented with 5% FBS and 1% antibiotic-antimycotic mix. The second and third passages of cells that migrated from the original explants of aortic media were routinely probed with antibodies recognizing the SMC-specific α-actin to monitor the preservation of the SMC phenotype. All cells were initially plated at 100,000 cells per dish for immediate confluency so they would begin extracellular matrix production. The cell cultures committed to particular experiments were then transferred to DMEM containing either 2% FBS or to serum-free medium before initiation of particular treatments.
# At the end of treatments, confluent cultures of AoSMCs were fixed in cold 100% methanol at −20° C. for 30 minutes, and blocked with 1% normal goat serum for 1 hour. The cultures were then incubated for 1 hour with 10 μg/mL polyclonal antibodies to tropoelastin and/or with 10 μg/mL monoclonal antibody to SMC-specific α-actin. All cultures were then incubated for another hour with the respective fluorescein-conjugated secondary antibodies (fluorescein-conjugated goat anti-rabbit or anti-mouse). Nuclei were counterstained with red-fluorescent propidium iodide or blue-fluorescent DAPI. The cultures were then mounted in ethanol and examined using a microscope (Eclipse E1000; Nikon Instruments, Inc., Melville, N.Y.) attached to a cooled CCD camera (Retiga EX; QImaging Corp., Vancouver, BC, Canada) and a computer-generated morphometric analysis system (Image-Pro Plus software; Media Cybernetics, Inc., Bethesda, Md.). In each analyzed group, 50 low-power fields from three separate cultures were analyzed, and the areas occupied by immunodetectable elastic fibers were expressed as a percentage of the entire analyzed field.
# S-Gal/EBP = assay: Association of tropoelastin with S-Gal/EBP chaperone (Western blot, co-immunoprecipitation, double immunostaining); assay type: cell-based, human
# Experimental: Cultures fixed for 30 minutes in cold 100% methanol were then blocked with 1% glycine for 15 minutes, followed by 2% bovine serum albumin with 0.1% Triton X-100 for another hour at room temperature. They were finally exposed for 1 hour to the mixture of 5 μg/mL polyclonal anti-S-Gal/EBP and 5 μg/mL monoclonal anti-tropoelastin antibodies. All cultures were then incubated for another hour with the mixture of fluorescein-conjugated and rhodamine-conjugated secondary antibodies. Nuclei were counterstained with DAPI. At the end of all treatments, cells from quadruplicate cultures in each experimental group were lysed using NP40 cell lysis buffer (Invitrogen Corp.). Thirty micrograms of protein extracts from each sample was suspended in standard sample buffer, resolved on 4% to 12% gradient SDS-PAGE gels, transferred to nitrocellulose membranes, and subjected to Western blotting using antibodies. At the end of indicated treatments, the cultured cells were lysed as described, and 300 μL aliquots of cell extracts containing […] were incubated at 4° C. for 3 hours with the aliquots of protein G bound DYNABEADS® (Invitrogen Corp.) that were conjugated with either rabbit polyclonal anti-tropoelastin, goat polyclonal anti-Glut10, or rabbit polyclonal anti-S-Gal antibodies. The beads carrying the final immunoprecipitation products were then washed with PBS, resuspended in sample buffer, and boiled for 5 minutes. The released proteins were then resolved on SDS-PAGE gel and subjected to Western blotting using indicated antibodies.
# tropoelastin = assay: Metabolically labeled tropoelastin in cell extracts and conditioned media (secretion); assay type: cell-based, human; details: 1-hour preincubation with LY294002, 10 nmol/L insulin
# Experimental: Cells were plated in 35-mm dishes at a density of 100,000 cells per dish and were grown to confluency. Two microcuries [3H]-valine per milliliter fresh medium supplemented with 2% FBS was added 2 hours before the indicated treatments. At the end of each experiment, the conditioned medium was collected and subjected to immunoprecipitation using anti-tropoelastin antibody. The cell layers were washed with PBS and incubated using radioimmunoprecipitation lysis buffer for 10 minutes on ice. After centrifugation, the supernatants were collected and subjected to immunoprecipitation using anti-tropoelastin antibody. […] Final results (counts per minute) reflecting the total amount of [3H]-valine-labeled insoluble elastin in individual cultures were normalized per their DNA contents (assessed using the Qiagen […] isolation) Tissue Kit) and expressed as percentage of control values. At the end of all treatments, cells from quadruplicate cultures in each experimental group were lysed using NP40 cell lysis buffer (Invitrogen Corp.). Thirty micrograms of protein extracts from each sample was suspended in standard sample buffer, resolved on 4% to 12% gradient SDS-PAGE gels, transferred to nitrocellulose membranes, and subjected to Western blotting using antibodies. At the end of indicated treatments, the cultured cells were lysed as described, and 300 μL aliquots of cell extracts containing […] were incubated at 4° C. for 3 hours with the aliquots of protein G bound DYNABEADS® (Invitrogen Corp.) that were conjugated with either rabbit polyclonal anti-tropoelastin, goat polyclonal anti-Glut10, or rabbit polyclonal anti-S-Gal antibodies. The beads carrying the final immunoprecipitation products were then washed with PBS, resuspended in sample buffer, and boiled for 5 minutes. The released proteins were then resolved on SDS-PAGE gel and subjected to Western blotting using indicated antibodies.
# [2] = 24-hour AoSMC cultures, 10 nmol/L insulin
# [3] = 10 nmol/L IGF-1, 24-hour AoSMC cultures
compound,measurement,setting,value
O=c1cc(N2CCOCC2)oc2c(-c3ccccc3)cccc12 [LY294002],effect of inhibitor on insulin-induced up-regulation of tropoelastin mRNA,tropoelastin mRNA,abrogated
same,binding of FoxO1 from nuclear extracts to elastin promoter FRE DNA probe,FoxO1,bound abundant FoxO1 proteins
same,effect of inhibitor on elastogenic effects of IGF-1,[1],abolished the elastogenic effects; also recorded: also eliminated
same,"effect of inhibitor on elastogenic effects of insulin (immunostained elastic fibers, [3H]-valine-labeled insoluble elastin)",[1]; [2],eliminated the elastogenic effects
same,insulin-induced tropoelastin/S-Gal/EBP co-localization in cells preincubated with inhibitor,S-Gal/EBP; LY294002 preincubation (data not shown),could not induce such tropoelastin/S-Gal/EBP co-localization
same,effect of PI3K inhibitor on insulin-induced S-Gal/EBP coimmunoprecipitation,S-Gal/EBP; pretreated 30 minutes with PI3K inhibitor,could not be induced; also recorded: could not induce the same effect
same,effect of PI3K inhibition on insulin-induced changes in tropoelastin levels,tropoelastin,could not be observed
CC(C)(C)c1cc(C=C(C#N)C#N)cc(Br)c1O [AG1024],effect of inhibitor on insulin-induced up-regulation of tropoelastin mRNA,tropoelastin mRNA,abrogated
same,"effect of inhibitor on elastogenic effects of insulin (immunostained elastic fibers, [3H]-valine-labeled insoluble elastin)",[1]; [2],eliminated the elastogenic effects
COc1ccc(CNc2nc(N(CCO)CCO)nc3c2ncn3C(C)C)cc1 [CVT313],effect of cdk-2 inhibition on elastogenic effect of IGF-1,[1]; [3],abolished the final elastogenic effect
same,effect of cdk-2 inhibition on elastogenic effect of insulin,"[1]; 10 nmol/L insulin, 24-hour AoSMC cultures",did not diminish the elastogenic effect; also recorded: still exhibited heightened deposition of elastic fibers
"OC[C@H]1O[C@@H](n2cnc3cc(Cl)c(Cl)cc32)[C@H](O)[C@@H]1O [dichloro-benzimidazole riboside, dichlorobenzimidazole riboside]",effect of transcription inhibitor on insulin-induced up-regulation of tropoelastin mRNA,tropoelastin mRNA; pretreatment with 50 μmol/L inhibitor,completely abolished
COc1cc([C@@H]2c3cc4c(cc3[C@H](O)[C@H]3COC(=O)[C@@H]23)OCO4)cc(OC)c1OC [picropodophyllin],effect of inhibitor on insulin-induced up-regulation of tropoelastin mRNA,tropoelastin mRNA,did not inhibit
same,effect of inhibitor on elastogenic effects of IGF-1,[1],also eliminated
IGF-1,elastogenic effect of IGF-1,[1]; [3],elastogenic effects
